From ChEMBL document CHEMBL1201862, “PubChem BioAssay data set” (2004)
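48-hour exposure; five concentrations; linearly interpolated endpoints. At the GI50, growth is halved.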 Activity calls are given as the source filed them. Rule as the data show it: active = GI50 up to about 1.1 µM and inactive = higher.

What was measured:
Test in all cases: NCI tumour cell line growth inhibition, 48 h
[1] = system: HL-60
[2] = system: HCT-15
[3] = system: LOX IMVI
[4] = system: MDA-MB-435
[5] = system: Malme-3M
[6] = system: NCI-H522
[7] = system: SR
[8] = system: HOP-62
[9] = system: DU-145
[10] = system: KM12
[11] = system: OVCAR-3
[12] = system: RXF 393
[13] = system: COLO 205
[14] = system: CCRF-CEM
[15] = system: A498
[16] = system: T47D
[17] = system: UACC-257
[18] = system: SK-OV-3
[19] = system: SK-MEL-2
[20] = system: IGROV-1

Row | Compound | GI50 [1] | GI50 [2] [µM] | GI50 [3] | GI50 [4] | GI50 [5] | GI50 [6] | GI50 [7] | GI50 [8] | GI50 [9] | GI50 [10] | GI50 [11] | GI50 [12] | GI50 [13] | GI50 [14] | GI50 [15] | GI50 [16] | GI50 [17] | GI50 [18] | GI50 [19] | GI50 [20]
1 | COc1ccc(CCN2COc3ccc4ccc(=O)oc4c3C2)cc1OC | 19.1 µM (inactive) | > 100 | 20.9 µM (inactive) | > 100 µM (inactive) | > 100 µM (inactive) | > 100 µM (inactive) | 24.3 µM (inactive) | > 100 µM (inactive) | > 100 µM (inactive) | > 100 µM (inactive) | > 100 µM (inactive) | 85.7 µM (inactive) | > 100 µM (inactive) | 23.7 µM (inactive) | > 100 µM (inactive) | > 100 µM (inactive) | > 100 µM (inactive) | > 100 µM (inactive) | > 100 µM (inactive) | > 100 µM (inactive)
2 | COc1cc(C2c3cc4c(cc3OC3(OC)COC(=O)C23)OCO4)cc(OC)c1OC(C)=O (stereo not given) | 1.23 µM (inactive) | 0.798 | 0.656 µM (active) | 0.331 µM (active) | > 100 µM (inactive) | 0.263 µM (active) | 2.53 µM (inactive) | 0.8 µM (active) | 2.52 µM (inactive) | 0.881 µM (active) | 1.3 µM (inactive) | 0.499 µM (active) | 3.87 µM (inactive) | 2.24 µM (inactive) | 3.27 µM (inactive) | > 100 µM (inactive) | > 39.4 µM (inactive) | 1.66 µM (inactive) | 1.84 µM (inactive) | 2.21 µM (inactive)
3 | C=C1C(C)C2C(Cc3ccccc3)NC(=O)C23C(OC(C)=O)/C=C/C(C)(O)CC(C)C/C=C/C3C1O (stereo not given) | 5.02 µM (inactive) | 2.7 | 0.0593 µM (active) | 32.9 µM (inactive) | 28.4 µM (inactive) | 2.26 µM (inactive) | 27.5 µM (inactive) | 0.0435 µM (active) | > 100 µM (inactive) | 97.3 µM (inactive) | 2.19 µM (inactive) | 0.0394 µM (active) | 0.104 µM (active) | 1.03 µM (active) | 0.117 µM (active) | > 100 µM (inactive) | 17.1 µM (inactive) | 0.242 µM (active) | 8.97 µM (inactive) | 1.32 µM (inactive)
4 | CC1C2Cc3ccc(O)cc3C1(C)CCN2C (stereo not given) | > 100 µM (inactive) | > 100 | > 100 µM (inactive) | > 100 µM (inactive) | > 100 µM (inactive) | > 100 µM (inactive) | > 100 µM (inactive) | > 100 µM (inactive) | > 100 µM (inactive) | > 100 µM (inactive) | > 100 µM (inactive) | > 100 µM (inactive) | > 100 µM (inactive) | > 100 µM (inactive) | > 100 µM (inactive) | > 100 µM (inactive) | > 100 µM (inactive) | > 100 µM (inactive) | > 100 µM (inactive) | > 100 µM (inactive)
5 | CC1=C/C(=C(/c2ccc(O)c(C)c2)c2ccccc2C(=O)O)C=CC1=O | 20.8 µM (inactive) | 21.4 | 20.7 µM (inactive) | 17.6 µM (inactive) | 24.9 µM (inactive) | 21.5 µM (inactive) | 20.7 µM (inactive) | 19 µM (inactive) | 18.1 µM (inactive) | 19.3 µM (inactive) | 18 µM (inactive) | 17.4 µM (inactive) | 19.9 µM (inactive) | 21.8 µM (inactive) | 18.7 µM (inactive) | 26.8 µM (inactive) | 18.7 µM (inactive) | 19.2 µM (inactive) | 20.6 µM (inactive) | 18.1 µM (inactive)
